In PMC12305496, “Bilosomal Encapsulation of Binuclear Phosphino Ru(II)–Cu(II) Compounds Enhances Their Selectivity and Activity toward Lung and Prostate Cancers” (Journal of Medicinal Chemistry, 2025):

Key:
Format in all cases: cell-based, human
[1] = system: A549 cells; assay: MTT cytotoxicity assay, A549
Protocol: (§4) Primary screening of the antiproliferative activity of the heteronuclear Ru­(II)–Cu­(II) complexes was performed by the commonly used MTT assay on four human cancer cell lines: MCF-7 (breast), A549 (lung adenocarcinoma), DU145 (prostate), and PANC-1 (pancreatic). In addition, normal human embryonic kidney (HEK293T) and human keratinocyte (HaCaT) cell lines were used as controls to assess the toxicity of these complexes. The IC50 values (the concentration that causes 50% inhibition of cell proliferation) examined for compounds are compared to those obtained for clinically used cisplatin (CDDP) under the same experimental conditions.
(§5) The MCF7 cell line (human breast adenocarcinoma; morphology: epithelial-like, ATCC: HTB-22), A549 cell line (human lung adenocarcinoma, morphology: epithelial, ATCC: CCL-185), PANC-1 (human pancreatic/duct carcinoma, morphology: epithelial, ATCC: CRL-1469), and HaCaT (human keratinocyte, ATCC PCS-200-011) were cultured in DMEM (Corning), supplemented with 10% fetal bovine serum (FBS) and with 1% streptomycin/penicillin. The DU145 cell line (human prostate carcinoma) and HEK293T and HEK293 cell line (human embryonic kidney) were cultured in minimum essential medium (MEM, Corning) with 10% FBS. Cultures were incubated at 37 °C under a humidified atmosphere containing 5% CO2. Cells were passaged using a solution containing 0.05% trypsin and 0.5 mM EDTA. All media and other ingredients were purchased from ALAB­(Poland) or Thermo Fisher Scientific (USA).
(§6) Since most of the studied compounds are insoluble in aqueous media, they needed to be predissolved in DMSO for biological evaluation. DMSO was used in cell cultures at a concentration below 0.1% (v/v) to minimize its cytotoxicity and changes in gene expression. Cytotoxicity of the studied compounds was assessed using an MTT assay performed according to the protocols described previously. […] After that time, solutions of compounds were washed out, cells were then washed three times with PBS (1X), and a fresh medium was applied. Each compound concentration was tested in five replicates and repeated at least three times. Determined values of IC50 (concentration of a drug required to inhibit the growth of 50% of the cells) are given as mean ± SD. […] IC50 values were determined, after 72 h, from the plots of cell viability in the presence of various concentrations of each compound by matching the dose–response curves.

[2] = system: MCF7 cells; assay: MTT cytotoxicity assay, MCF7
Source text: The IC50 values (the concentration that causes 50% inhibition of cell proliferation) examined for compounds are compared to those obtained for clinically used cisplatin (CDDP) under the same experimental conditions.
The MCF7 cell line (human breast adenocarcinoma; morphology: epithelial-like, ATCC: HTB-22), A549 cell line (human lung adenocarcinoma, morphology: epithelial, ATCC: CCL-185), PANC-1 (human pancreatic/duct carcinoma, morphology: epithelial, ATCC: CRL-1469), and HaCaT (human keratinocyte, ATCC PCS-200-011) were cultured in DMEM (Corning), supplemented with 10% fetal bovine serum (FBS) and with 1% streptomycin/penicillin. […] Cultures were incubated at 37 °C under a humidified atmosphere containing 5% CO2. Cells were passaged using a solution containing 0.05% trypsin and 0.5 mM EDTA.
as §6

[3] = system: DU145 cells; assay: MTT cytotoxicity assay, DU145
Protocol: as §4, §5, §6

[4] = system: PANC-1 cells; assay: MTT cytotoxicity assay, PANC-1
Protocol: as §4, §5, §6

[5] = system: HEK293T cells; assay: MTT cytotoxicity assay, HEK293T
Protocol: as §4, §5, §6

[6] = system: HaCaT cells; assay: MTT cytotoxicity assay, HaCaT
Protocol: as §4, §5, §6

[7] = system: A549 cells; assay: Cell cycle analysis by flow cytometry; details: A549, 5 μM, 24 h
Protocol: Before treatment, cells were synchronized, and the compounds were applied at various concentrations.
The A549 and DU145 cells (3 × 10^5/well) were seeded in 12-well plates and treated with various concentrations of the examined complexes and CDDP for 24 h. Synchronization of A549 and DU145 cell cultures was performed by serum starvation. Serum starvation is widely used for synchronizing donor cells by arresting them in the G 0/G 1 phase of the cell cycle. Cell cultures were seeded and incubated in growth medium with 20% FBS overnight to synchronize the cell cultures. Then, the cultures were rinsed with PBS (1×) and changed to a serum-free medium. After serum starvation for 18 h, the cells were passaged and released into the cell cycle by the addition of the serum. Then cells were treated with the examined compounds and CDDP for 24 h. For FACS analysis, cell samples were harvested with trypsinization and stained with propidium iodide (20 μg/mL). Cell cycle phase distributions were analyzed by flow cytometry (BD Bioscience). Experiments were reaped at least three times.

[8] = system: A549 cells; assay: PrestoBlue HS cell viability assay, A549; details: 24 h, dissolved in 0.9% NaCl
Protocol: (§1) Primary screening of the antiproliferative activity of the heteronuclear Ru(II)–Cu(II) complexes was performed by the commonly used MTT assay on four human cancer cell lines: MCF-7 (breast), A549 (lung adenocarcinoma), DU145 (prostate), and PANC-1 (pancreatic). In addition, normal human embryonic kidney (HEK293T) and human keratinocyte (HaCaT) cell lines were used as controls to assess the toxicity of these complexes. […] To verify whether the use of DMSO as a solvent influenced the cytotoxic activity of CDDP, we performed additional experiments (Figure S29) with CDDP (Sigma-Aldrich) dissolved in 0.9% NaCl as per the manufacturer’s recommendation. […]
(§2) Additionally, the viability of A549 and DU145 cell lines, as well as the control cell line HEK293, upon CDDP in 0.9% NaCl, was assessed using the resazurin-based PrestoBlue HS Cell Viability assay, according to the manufacturer’s protocol. […] Results were recorded using fluorescence (excitation 560 nm, emission 590 nm) and absorbance (570 nm), with fluorescence values calculated further using GraphPad Prism software, v. […]
(§3) Figure S29. […] Cells were incubated with varying concentrations of CDDP for 24 h and cell viability was measured by fluorescence intensity (excitation 560 nm, emission 590 nm). […]

[9] = system: DU145 cells; assay: PrestoBlue HS cell viability assay, DU145; details: 24 h, dissolved in 0.9% NaCl
Protocol: as §1, §2, §3

[10] = system: HEK293 cells; assay: PrestoBlue HS cell viability assay, HEK293; details: 24 h, dissolved in 0.9% NaCl
Protocol: as §1, §2, §3

[11] = system: BAX and BCL-2 genes' expression; assay: RT-qPCR of BAX and BCL-2 gene expression in A549 cells; details: mRNA, control = 1
Protocol: In this study, using Reverse transcription (RT)-quantitative real-time PCR (RT-qPCR), we analyzed whether the expression ratio of Bax to Bcl-2 mRNA correlates with apoptosis or the proliferative activity of cancer cells. −
For this purpose, total RNA was isolated using the Total RNA Mini Plus kit (A&A Biotechnology, Gdansk, Poland) following the manufacturer’s instructions. A total of 1 μg of RNA was subjected to RT into complementary DNA (cDNA) using oligo­(dT)­18 and the TranScriba Kit (A&A Biotechnology, Gdansk, Poland). The qRT-PCR experiments were performed with the Sensitive RT HS-PCR Mix (A&A Biotechnology, Gdansk, Poland) on a real-time PCR thermal cycler from Bio-Rad. The TaqMan primers used in this study were obtained from Thermo Fisher Scientific/Invitrogen, specifically Bax (Hs00180269_m1), Bcl-2 (Hs04986394_s1), and GAPDH (4352932E). The relative transcript quantification was carried out using the 2^–ΔΔCt method with GAPDH as the reference gene.

[12] = 24 h treatment, DMSO predissolved
[13] = 72 h (24 h + 48 h regeneration)
[14] = 24 h, Table 2 (bilosome comparison)

Molecule | IC50 [1, 12] [µM] | IC50 [1, 13] [µM] | IC50 ([2]; 24 h treatment) [µM] | IC50 [3, 12] [µM] | IC50 [3, 13] [µM] | IC50 ([4]; 24 h treatment) [µM] | IC50 [4, 13] [µM] | IC50 ([5]; 24 h treatment) [µM] | IC50 [5, 13] [µM] | IC50 ([6]; 24 h treatment) [µM] | IC50 [6, 13] [µM] | effect on cell cycle [7] | IC50 [3, 14] [µM] | IC50 [5, 14] [µM] | IC50 [6, 14] [µM] | Bax/Bcl-2 ratio [11] | other results
[Ru(η^6-p-cymene)Cl2Psfx-Cu(phen)] [RuPSfCu] | 41.1 ± 0.7 | 25.4 ± 1.66 | 17.7 ± 0.93 | 16 ± 0.05 | 13.5 ± 0.35 | 27.2 ± 0.86 | 22.1 ± 0.68 | 546 ± 11.2 | 695 ± 14.2 | > 1000 | 741 ± 13.2 | induced cell cycle arrest in the S phase | – | – | – | – | –
[Ru(η^6-p-cymene)Cl2Plfx-Cu(phen)](NO3) [RuPLmCu] | 42.6 ± 0.68 | 24.3 ± 0.91 | 26.7 ± 2.82 | 18.9 ± 1.21 | 12.7 ± 0.92 | 28.3 ± 0.71 | 22.7 ± 1.03 | 634 ± 9.1 | 782 ± 14.2 | 936 ± 10.1 | 833 ± 12.2 | – | – | – | – | – | –
[NH2][Pt]([NH2])([Cl])[Cl] [CDDP, cisplatin, reference compound] | 57 ± 1.3 | 71.7 ± 3.7 | 51.9 ± 4.61 | 68.3 ± 1.35 | 65.5 ± 3.61 | 95.6 ± 2.61 | 76.6 ± 1.68 | 21 ± 1.81 | 10.3 ± 2.15 | 43.3 ± 1.1 | 17.3 ± 3.1 | – | 68.3 ± 1.3 | 21 ± 1.6 | 43.3 ± 1.1 | 4.56 | IC50 [1, 14]: 57 ± 1.3 µM; IC50 [2, 13]: 17.7 ± 8.6 µM; IC50 [8]: 51.9 µM; IC50 [9]: 101 µM; IC50 [10]: 87 µM
[Ru(η^6-p-cymene)Cl2Pnfx-Cu(phen)](NO3) [RuPNrCu] | 48.1 ± 0.06 | 18.8 ± 3.4 | 24.7 ± 1.95 | 14.5 ± 1.04 | 14.9 ± 0.23 | 29.5 ± 0.81 | 23.1 ± 1.09 | 677 ± 12.7 | 798 ± 14.8 | > 1000 | 873 ± 18.8 | – | – | – | – | – | –
[Ru(η^6-p-cymene)Cl2Pcfx-Cu(phen)](NO3) [RuPCpCu] | 44.4 ± 0.78 | 12.6 ± 0.83 | 25 ± 0.91 | 31 ± 1.05 | 15 ± 0.44 | 25.9 ± 0.01 | 21.7 ± 1.02 | 644 ± 13.1 | 796 ± 8.9 | 935 ± 9.3 | 834 ± 11.9 | induced cell cycle arrest in the S phase | 31 ± 1.05 | 644 ± 13.1 | 935 ± 9.3 | 6.4 | –
